According to patent publication US20170122958A1, “Enzymes Functional Probes” (University of Dundee, priority 2013, published 2017):

How the values were obtained:
[1] = tested on: WT and mutants (Leu to Ala, Leu to Val and Leu to Ile) of Brd2(2); assay: ITC of compound into protein (FIG. 16); type: binding, human; settings: 250 μM compound into 25 μM protein; result in words
Protocol: To investigate the utility of the new compounds further, the inventors performed isothermal titration experiments by titrating 250 μM compound solutions (AL, ME-Am1, ET-Am1, ME-Am2, ET-Am2, 9-ME, 9-ET, 9-ME-Am1 and 9-ET-Am1) 25 μM protein solutions (WT and mutants (Leu to Ala, Leu to Val and Leu to Ile) of Brd2(2)).
(§1) ITC experiments were carried out on a ITC200 instrument from MicroCal™ Experiments were conducted at 3 different temperatures 15° C., 25° C. and 30° C., while stirring at 1000 rpm. Buffers of proteins, peptide and compounds were matched to 20 mM HEPES pH 7.5 at 25° C. and 100 mM NaCl. Frozen protein was buffer exchanged as described for the DSF experiments. Each titration comprised 1 initial injection of 0.4 μl lasting 0.8 s, followed by 19 injections of 2 μl lasting 4 s each at 2 min intervals. The initial injection was discarded during data analysis. Standard and reverse titrations were conducted depending on the binding partners.
(§2) All the data was fitted to a single binding site model using the Microcal LLC ITC200 Origin software provided by the manufacturer to yield enthalpies of binding (ΔH) and binding constants (Kas). Further thermodynamic parameters were calculated from these values (changes in entropy ΔS, changes in free energy AG and dissociation constants (Kds)).

[2] = tested on: Brd2(1) and (2) wild type and leucine to alanine, valine and isoleucine mutants; assay: DSF thermal stabilization (FIG. 15); type: binding, human; settings: result in words
Protocol: (§3) DSF assays were performed on a LightCycler®480 from Roche or a Mx3005P Real Time PCR machine from Stratagene. […] SYPRO®Orange from Invitrogen Molecular Probes® was used as a reporter dye to monitor the denaturing process of the proteins. Samples were assayed on a 96-well plate with final protein concentrations of 2 μM for the LightCycler®480 and 6 μM for Mx3005P. Compounds were added at a final concentration of 10 μM for the LightCycler®480 and 30 μM for Mx3005P, while the tetra acetylated histone peptide was added to a final concentration of 100 μM and 300 μM respectively. […] The temperature was raised with a step of 0.6° C. per minute from 37° C. to 95° C. with the LightCycler®480 collecting 39 measurements per ° C., and 1° C. per minute from 25° C. to 95° C. with Mx3005P, collecting fluorescence readings at the end of each interval. Each sample was run in triplicates.
(§4) Collected data was analysed by IGOR Pro 6, a scientific software tool from Wave Metrics, Inc. Analysis was done following the recommendations of Niesen et al.. Fluorescence intensity was plotted as a function of temperature, generating a sigmoidal curve described by a two-state transition from folded to unfolded protein. Curves were fitted by the following sigmoidal equation: […]
(§5) A1 and A2 are the values of minimum and maximum intensities, respectively, x0 is the inflection point and dx is the rate. Fitted curves were differentiated in IGOR Pro 6 and the maximum of the first derivative was identified using the same program. These values correspond to the inflection points of the transition curves and thus to the melting temperatures of the proteins (Tm).

Brd2(2) [3] = target: T1, Brd2(2) (Homo sapiens, UniProt P25440); assay: ITC reverse titration of protein into compound; type: binding; settings: ITC 30° C., 1% DMSO; for Kd: Kd Brd2(2)
T1 construct: Plasmids of the eight single BET bromodomain constructs Brd2(1), Brd2(2), Brd3(1), Brd3(2); His6 (N); made in house; host or cells: E. coli BL21(DE3)
T1 sequence (P25440 344-453 limits assumed): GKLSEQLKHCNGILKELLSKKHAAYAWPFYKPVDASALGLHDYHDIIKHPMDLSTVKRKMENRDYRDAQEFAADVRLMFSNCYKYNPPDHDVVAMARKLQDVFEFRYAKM
Protocol: as §1
(§6) Reverse titrations were conducted to test the binding of the known ligands and the novel chemical probes to the wild types and the mutants. Experiments were carried out either at 25° C. or 30° C. […] In cases where the compound was solubilized in dimethyl sulfoxide, DMSO concentration was adjusted to 1% both in the syringe and in the cell.
as §2

Brd2(1) [4] = target: T2, Brd2(1) (Homo sapiens, UniProt P25440); assay: ITC reverse titration of protein into compound; type: binding; settings: for ΔH Brd2(1): ITC 30° C., 1% DMSO
T2 construct: Plasmids of the eight single BET bromodomain constructs Brd2(1), Brd2(2), Brd3(1), Brd3(2); His6 (N); made in house; host or cells: E. coli BL21(DE3)
T2 sequence (P25440 74-180 limits assumed): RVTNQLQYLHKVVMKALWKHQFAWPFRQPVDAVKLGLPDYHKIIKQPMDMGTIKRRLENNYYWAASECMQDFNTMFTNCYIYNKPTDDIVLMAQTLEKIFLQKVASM
Protocol: as §1, §6, §2

Brd2(2)*(Leu383-Ala) [5] = target: T3, Brd2(2)*(Leu383-Ala) (Homo sapiens, UniProt P25440, L383A); assay: ITC reverse titration of protein into compound; type: binding; set-up: Plasmids of the eight single BET bromodomain constructs Brd2(1), Brd2(2), Brd3(1), Brd3(2), Brd4(1), Brd4(2), Brdt(1) and Brdt(2); His6 (N); made in house; host or cells: E. coli BL21(DE3); settings: ITC 30° C., 1% DMSO; for Kd: Kd Brd2(2)* (Leu383-Ala)
T3 sequence (P25440 344-453 L383A limits assumed): as the sequence (P25440 344-453 limits assumed) above, with L40A counted along it
Protocol: as §1, §6, §2

Brd2(1)*(Leu110-Ala) [6] = target: T4, Brd2(1)*(Leu110-Ala) (Homo sapiens, UniProt P25440, L110A); assay: ITC reverse titration of protein into compound; type: binding; set-up: Plasmids of the eight single BET bromodomain constructs Brd2(1), Brd2(2), Brd3(1), Brd3(2), Brd4(1), Brd4(2), Brdt(1) and Brdt(2); His6 (N); made in house; host or cells: E. coli BL21(DE3); settings: for ΔH Brd2(1)* (Leu110-Ala): ITC 30° C., 1% DMSO
T4 sequence (P25440 74-180 L110A limits assumed): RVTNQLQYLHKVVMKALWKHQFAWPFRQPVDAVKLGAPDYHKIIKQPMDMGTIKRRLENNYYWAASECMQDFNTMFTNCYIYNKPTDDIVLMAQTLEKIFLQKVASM
Protocol: as §1, §6, §2

Brd2(2)*(Leu383-Ala) [7] = target: T3, Brd2(2)*(Leu383-Ala); assay: DSF thermal shift; type: binding; set-up: Plasmids of the eight single BET bromodomain constructs Brd2(1), Brd2(2), Brd3(1), Brd3(2); His6 (N); made in house; host or cells: E. coli BL21(DE3); settings: mutant
Protocol: as §3, §4, §5

Brd2(1)*(Leu110-Ala) [8] = target: T4, Brd2(1)*(Leu110-Ala); assay: DSF thermal shift; type: binding; set-up: Plasmids of the eight single BET bromodomain constructs Brd2(1), Brd2(2), Brd3(1), Brd3(2); His6 (N); made in house; host or cells: E. coli BL21(DE3); settings: mutant
Protocol: as §3, §4, §5

Solubility observations = settings: observation in words
brd4(1)L094A = target: T5, brd4(1)L094A (Homo sapiens, UniProt O60885, L94A); assay: DSF thermal shift; type: binding; settings: mutant
T5 construct: Plasmids of the eight single BET bromodomain constructs Brd2(1), Brd2(2), Brd3(1), Brd3(2), Brd4(1), Brd4(2), Brdt(1) and Brdt(2); His6 (N); made in house; host or cells: E. coli BL21(DE3)

Brd4(1) = target: T6, Brd4(1) (Homo sapiens, UniProt O60885); assay: DSF thermal shift; type: binding; settings: wild type
T6 construct: Plasmids of the eight single BET bromodomain constructs Brd2(1), Brd2(2), Brd3(1), Brd3(2), Brd4(1), Brd4(2), Brdt(1) and Brdt(2); His6 (N); made in house; host or cells: E. coli BL21(DE3)

Brd4(2) = target: T7, Brd4(2) (Homo sapiens, UniProt O60885); assay: DSF thermal shift; type: binding; settings: wild type
T7 construct: Plasmids of the eight single BET bromodomain constructs Brd2(1), Brd2(2), Brd3(1), Brd3(2), Brd4(1), Brd4(2), Brdt(1) and Brdt(2); His6 (N); made in house; host or cells: E. coli BL21(DE3)

Brd2(2) [9] = target: T1, Brd2(2); assay: DSF thermal shift; type: binding; settings: wild type
brd4(2)L387A = target: T8, brd4(2)L387A (Homo sapiens, UniProt O60885, L387A); assay: DSF thermal shift; type: binding; settings: mutant
T8 construct: Plasmids of the eight single BET bromodomain constructs Brd2(1), Brd2(2), Brd3(1), Brd3(2), Brd4(1), Brd4(2), Brdt(1) and Brdt(2); His6 (N); made in house; host or cells: E. coli BL21(DE3)

Brd2(1) [10] = target: T2, Brd2(1); assay: DSF thermal shift; type: binding; settings: wild type

| Compound | Selectivity for Brd2(2) mutants relative to wild type by ITC (FIG. 16) [1] | Thermal stabilization of Brd2 mutants versus wild types (FIG. 15) [2] | ΔH Brd2(2) (Brd2(2) [3]) | Kd (Brd2(2) [3]) | Kd (Brd2(1) [4]) | ΔH Brd2(1) (Brd2(1) [4]) | ΔH Brd2(2)* (Leu383-Ala) (Brd2(2)*(Leu383-Ala) [5]) | Kd (Brd2(2)*(Leu383-Ala) [5]) | Kd (Brd2(1)*(Leu110-Ala) [6]) | ΔH Brd2(1)* (Leu110-Ala) (Brd2(1)*(Leu110-Ala) [6]) | ΔTm Brd2(2)*(Leu383-Ala) (Brd2(2)*(Leu383-Ala) [7]) | ΔTm Brd2(1)*(Leu110-Ala) (Brd2(1)*(Leu110-Ala) [8]) | Solubility (Solubility observations) | ΔTm Brd4(1)* (L094A) (brd4(1)L094A) | ΔTm Brd4(1) (Brd4(1)) | ΔTm Brd4(2) (Brd4(2)) | ΔTm Brd2(2) (Brd2(2) [9]) | ΔTm Brd4(2)* (L387A) (brd4(2)L387A) | ΔTm Brd2(1) (Brd2(1) [10]) |
| --- | --- | --- | --- | --- | --- | --- | --- | --- | --- | --- | --- | --- | --- | --- | --- | --- | --- | --- | --- |
| CCNC(=O)[C@H](CC)[C@@H]1N=C(c2ccc(Cl)cc2)c2ccc(OC)cc2-n2c(C)nnc21 (racemic) [Compound 9-ET-Am1, (+−) (R)-2-((S)-6-(4-chlorophenyl)-9-methoxy-1-methyl-4H-benzo[f][1,2,4]triazolo[4,3-a][1,4]diazepin-4-yl)-N-ethylbutanamide] | higher selectivity for the mutants relative to wild types | smaller shifts |  |  |  |  |  |  |  |  |  |  |  |  |  |  |  |  |  |
| CCC[C@@H](C(=O)OC)[C@@H]1N=C(c2ccc(Cl)cc2)c2cc(OC)ccc2-n2c(C)nnc21 (racemic) [Compound 12, (+−)-methyl (R)-2-((S)-6-(4-chlorophenyl)-8-methoxy-1-methyl-4H-benzo[f][1,2,4]triazolo[4,3-a][1,4]diazepin-4-yl)pentanoate] |  | smaller shifts | -9520 ± 544.9 cal/mol | 2390 ± 1480 nM | 5.88 ± 1.21 µM | -11490 ± 1048 cal/mol | -7095 ± 106.9 cal/mol | 265 ± 53.9 nM | 400 ± 82.4 nM | −11160 ± 241.8 cal/mol | 5.0 ± 0.1 K | 4.0 ± 0.4 K | lower than that for compounds with smaller bumps | 6.4 ± 0.8 K | 2.9 ± 0.7 K | 3.2 ± 0.7 K | 2.1 ± 0.1 K | 6.7 ± 0.2 K | 1.7 ± 0.2 K |
| COC(=O)[C@H](CC1CC1)[C@@H]1N=C(c2ccc(Cl)cc2)c2cc(OC)ccc2-n2c(C)nnc21 (racemic) [Compound 13, (+−)-methyl (R)-2-((S)-6-(4-chlorophenyl)-8-methoxy-1-methyl-4H-benzo[f][1,2,4]triazolo[4,3-a][1,4]diazepin-4-yl)-3-cyclopropylpropanoate] |  |  | -2089 ± 211.0 cal/mol | 3320 ± 1860 nM | 4.31 ± 3.05 µM | -3402 ± 433.5 cal/mol | -7868 ± 336.5 cal/mol | 667 ± 330 nM | 360 ± 68.2 nM | −9662 ± 162.7 cal/mol | 5.3 ± 0.3 K | 3.7 ± 0.2 K | lower than that for compounds with smaller bumps | 5.6 ± 0.3 K | 1.2 ± 0.6 K | 2.0 ± 1.0 K | 3.7 ± 0.6 K | 5.8 ± 0.1 K | 0.5 ± 0.3 K |
